Reference: the NIST ThermoML archive (doi:10.1016/j.fluid.2009.02.010)
Numbers after ± are expanded uncertainties. Each block holds one compound with its values, some of them ahead of it.

Tests used:
[1] = refractive index (Na D-line) (dimensionless); conditions: 298.15 K; 101.33 kPa; Liquid; Standard Abbe refractometry
[2] = Liquid, Ebulliometric method (Recirculating still)

Compound: Cc1ccccc1C [1,2-dimethylbenzene]
- refractive index [1]: 1.5028 ± 0.0007

Compound: Cc1ccsc1 [3-methylthiophene]
- vapor or sublimation pressure ([2]; 333.15 K): 15.43 ± 0.35 kPa
- vapor or sublimation pressure ([2]; 341.98 K): 21.8 ± 0.35 kPa
- vapor or sublimation pressure ([2]; 350.79 K): 30.23 ± 0.36 kPa
- vapor or sublimation pressure ([2]; 359.01 K): 40.33 ± 0.37 kPa
- vapor or sublimation pressure ([2]; 365.62 K): 50.31 ± 0.38 kPa
- vapor or sublimation pressure ([2]; 371.73 K): 61.23 ± 0.39 kPa
- vapor or sublimation pressure ([2]; 376.26 K): 70.53 ± 0.4 kPa
- vapor or sublimation pressure ([2]; 380.53 K): 80.35 ± 0.42 kPa
- vapor or sublimation pressure ([2]; 384.69 K): 91 ± 0.43 kPa
- vapor or sublimation pressure ([2]; 387.89 K): 100.02 ± 0.44 kPa
- refractive index [1]: 1.5172 ± 0.0007

Compound: C1CCCCC1 [cyclohexane]
- refractive index [1]: 1.4235 ± 0.0007

Compound: C=CCCCC [hex-1-ene]
- refractive index [1]: 1.3849 ± 0.0007

More lines, now with the values ahead:

- refractive index [1]: 1.3889 ± 0.0007
Compound: CC(C)CC(C)(C)C [2,2,4-trimethylpentane]

- refractive index [1]: 1.4062 ± 0.0007
Compound: C=C(C)CC(C)(C)C [2,4,4-trimethyl-1-pentene]
